{"source": "patent US20240239804A1", "about": "“FUROINDAZOLE DERIVATIVES AS ANTAGONISTS OR INHIBITORS OF GPR84” (Bayer Aktiengesellschaft, priority 2021, published 2024)", "note": "pIC50: −log10 of the molar value."}
{"target": "T1, human GPR84 receptor (Homo sapiens, UniProt Q9NQS5)", "T1 construct": "frozen aliquots prepared by acCELLerate; host or cells: CHO-K1", "T1 sequence (Q9NQS5 whole entry)": "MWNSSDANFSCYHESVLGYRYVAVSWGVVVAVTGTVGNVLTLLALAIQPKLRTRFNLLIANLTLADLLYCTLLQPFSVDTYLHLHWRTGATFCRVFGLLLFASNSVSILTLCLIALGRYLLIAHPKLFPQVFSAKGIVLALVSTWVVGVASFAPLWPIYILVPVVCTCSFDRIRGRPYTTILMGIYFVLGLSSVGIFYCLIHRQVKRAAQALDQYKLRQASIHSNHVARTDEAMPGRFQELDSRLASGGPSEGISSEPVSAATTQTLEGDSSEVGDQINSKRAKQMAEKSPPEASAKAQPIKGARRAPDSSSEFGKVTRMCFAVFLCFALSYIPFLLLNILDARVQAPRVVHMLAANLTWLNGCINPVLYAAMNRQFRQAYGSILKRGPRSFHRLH", "assay": "cAMP HTRF assay for identification of cellular GPR84 antagonists", "assay_type": "cell-based", "conditions": "CHO-K1 cells stably expressing human GPR84; Forskolin plus agonist 6-OAU; cAMP HTRF readout; average or median values", "text": "cAMP HTRF® Assay for Identification of Cellular GPR84 Antagonists\nBy using a Homogenous Time-Resolved Fluorescence (HTRF®) based assay (#62AM5PEJ, Cisbio, Condolet, France) the inhibition of the Gi-coupled GPR84 receptor can be detected. CHO-K1 cells stably expressing human GPR84 receptor (purchased from DiscoveRx, now Eurofins) were used and treated with Forskolin (F6886, Sigma, Germany) to stimulate membrane adenylyl cyclases and thereby unspecific cAMP formation. Activation of the Gi-coupled GPR84 by a natural or small molecule agonist (e.g. 6-n-octyl aminouracile, inhouse) results in inhibition of cellular cAMP formation which can be released again by antagonists to this receptor. Detection and quantification of cellular cAMP levels in this HTRF assay is achieved by interaction between a fluorescent cAMP tracer (cAMP-d2) and an Eu-cryptate labelled anti-cAMP antibody. Following excitation at 337 nm this pairing allows for the generation of a fluorescence resonance energy transfer (FRET) between the partners and results in FRET induced emissions at 665 nm and 620 nm, the latter representing background signal by Eu-cryptate labelled anti-cAMP antibody. Maximal signal is obtained in the absence of any cellular cAMP (no competition for the binding of the tracer to the antibody). Given the combination of the Gi coupling properties of GPR84 and the competitive nature of the detection system agonist treatment should result in an increase in the HTRF signal due to lowered cAMP levels. Any signal decrease in the presence of Forskolin, agonist and compound are indicative of antagonist mediated abrogation of GPR84 signalling.\nFor the assay, frozen aliquots of CHO-K1 cells expressing hGPR84 (prepared by acCELLerate, Hamburg, Germany) were thawed and a cell suspension (1.67E+06 cells/mL) in assay media (Ham's F12 Nutrient Mix, Thermo Fisher Scientific, Waltham, USA; 5% fetal calf serum, Biomol, Hamburg, Germany) containing cAMP-d2 (dilution 1:20, supplied with the kit #62AM5PEJ, Cisbio, Condolet, France) was prepared. After recovery of cells for 20 minutes at 37° C., 3 μL/well cell suspension including cAMP-d2 were added to a pre-dispensed assay plate (Greiner Bio-One, Kremsmuenster, Austria) containing 50 nl/well test compound in 100% DMSO or 100% DMSO as control. This was followed by a 30 minute incubation step at room temperature. The stimulation time was started by addition of 2 μL/well assay media containing 2.5×EC80 agonist 6-OAU and 2.5×EC90 Forskolin (negative control: 2.5×EC90 Forskolin in assay media) and was continued for 30 minutes at room temperature. The reaction was stopped by addition of 3 μL/well lysis buffer containing cAMP Eu-Cryptate antibody (dilution 1:20) (both supplied with the kit #62AM5PEJ, Cisbio, Condolet, France). To enable complete lysis, plates were incubated for 60 minutes at room temperature before measurement in an HTRF reader, e.g. a PHERAstar (BMG Labtech, Ortenberg, Germany).\nFrom the fluorescence emissions at 665 nm (FRET) and at 620 nm (background signal of Eu-cryptate) the ratio (emission at 665 nm divided by emission at 620 nm×10000) was calculated and the data were normalized (reaction without test compound, only 100% DMSO=0% inhibition; all other assay components except agonist=100% inhibition). For dose response testing on the same microtiter plate, compounds were tested at 11 different concentrations in the range of 20 μM to 0.07 nM (20 μM, 5.7 μM, 1.6 μM, 0.47 μM, 0.13 μM, 38 nM, 11 nM, 3.1 nM, 0.89 nM, 0.25 and 0.07 nM; dilution series prepared before the assay at the level of the 100-fold conc. stock solutions by serial 1:3.5 dilutions in 100% DMSO) in duplicate values for each concentration. IC50 values were calculated by 4-parameter fitting using a commercial software package (Genedata Screener, Basel, Switzerland).\nExamples were tested in selected biological assays one or more times. […]"}
{"molecule": "Cc1c(C(=O)NCC(C)(C)O)oc2c1-c1nn(Cc3ccc(Cl)cc3)cc1CC2", "note": "[Example 60, 2-[(4-chlorophenyl)methyl]-N-(2-hydroxy-2-methylpropyl)-8-methyl-4,5-dihydro-2H-furo[2,3-g]indazole-7-carboxamide]", "pIC50": 5.25}
{"molecule": "Cc1c(C(=O)NCc2ccon2)oc2c1-c1nn(Cc3ccc(Cl)cc3)cc1CC2", "note": "[Example 27, 2-[(4-chlorophenyl)methyl]-8-methyl-N-[(1,2-oxazol-3-yl)methyl]-4,5-dihydro-2H-furo[2,3-g]indazole-7-carboxamide]", "pIC50": 6.82}
{"molecule": "Cc1c(C(=O)N(C)Cc2ccn(C)n2)oc2c1-c1nn(Cc3ccc(Cl)cc3)cc1CC2", "note": "[Example 73, 2-[(4-chlorophenyl)methyl]-N,8-dimethyl-N-[(1-methyl-1H-pyrazol-3-yl)methyl]-4,5-dihydro-2H-furo[2,3-g]indazole-7-carboxamide]", "pIC50": 4.99}
{"molecule": "Cc1c(C(=O)NCC2CCCO2)oc2c1-c1nn(Cc3cccc(Cl)c3)cc1CC2", "note": "(racemic) [Example 15, 2-[(3-chlorophenyl)methyl]-8-methyl-N-[(2RS)-tetrahydrofuran-2-ylmethyl]-4,5-dihydro-2H-furo[2,3-g]indazole-7-carboxamide]", "pIC50": 7.13}
{"molecule": "CC(=O)Nc1ccc(CNC(=O)c2oc3c(c2C)-c2nn(Cc4ccc(Cl)cc4)cc2CC3)cc1", "note": "[Example 43, N-[(4-acetamidophenyl)methyl]-2-[(4-chlorophenyl)methyl]-8-methyl-4,5-dihydro-2H-furo[2,3-g]indazole-7-carboxamide]", "pIC50": 6.10}
{"molecule": "Cc1c(C(=O)NCC(N)=O)oc2c1-c1nn(Cc3ccc(Cl)cc3)cc1CC2", "note": "[Example 48, N-(2-amino-2-oxoethyl)-2-[(4-chlorophenyl)methyl]-8-methyl-4,5-dihydro-2H-furo[2,3-g]indazole-7-carboxamide]", "pIC50": 5.67}
{"molecule": "Cc1c(C(=O)NCCN2CCN(C)CC2)oc2c1-c1nn(Cc3ccccc3Cl)cc1CC2", "note": "[Example 11, 2-[(2-chlorophenyl)methyl]-8-methyl-N-[2-(4-methylpiperazin-1-yl)ethyl]-4,5-dihydro-2H-furo[2,3-g]indazole-7-carboxamide]", "pIC50": 6.64}
{"molecule": "Cc1c(C(=O)N2CCC(C(N)=O)CC2)oc2c1-c1nn(Cc3ccc(Cl)cc3)cc1CC2", "note": "[Example 83, 1-{2-[(4-chlorophenyl)methyl]-8-methyl-4,5-dihydro-2H-furo[2,3-g]indazole-7-carbonyl}piperidine-4-carboxamide]", "pIC50": 4.79}
{"molecule": "Cc1c(C(=O)NCc2ccccn2)oc2c1-c1nn(Cc3ccc(Cl)cc3)cc1CC2", "note": "[Example 39, 2-[(4-chlorophenyl)methyl]-8-methyl-N-[(pyridin-2-yl)methyl]-4,5-dihydro-2H-furo[2,3-g]indazole-7-carboxamide]", "pIC50": 6.55}
{"molecule": "Cc1c(C(=O)NCC2CCCO2)oc2c1-c1nn(Cc3cccc(Cl)c3)cc1CC2", "note": "(single isomer, unassigned) [Example 15-2]", "pIC50": 6.26}
{"molecule": "Cc1c(C(=O)NCCN2CCCCC2)oc2c1-c1nn(Cc3ccccc3Cl)cc1CC2", "note": "[Example 13, 2-[(2-chlorophenyl)methyl]-8-methyl-N-[2-(piperidin-1-yl)ethyl]-4,5-dihydro-2H-furo[2,3-g]indazole-7-carboxamide]", "pIC50": 6.44}
{"molecule": "Cc1ccccc1Cn1cc2c(n1)-c1c(oc(C(=O)NC[C@@H]3CCCO3)c1C)CC2", "note": "[Example 4, 8-methyl-2-[(2-methylphenyl)methyl]-N-[(2S)-tetrahydrofuran-2-ylmethyl]-4,5-dihydro-2H-furo[2,3-g]indazole-7-carboxamide]", "pIC50": 7.64}
{"molecule": "Cc1c(C(=O)N(C)Cc2cnn(C)c2)oc2c1-c1nn(Cc3ccc(Cl)cc3)cc1CC2", "note": "[Example 76, 2-[(4-chlorophenyl)methyl]-N,8-dimethyl-N-[(1-methyl-1H-pyrazol-4-yl)methyl]-4,5-dihydro-2H-furo[2,3-g]indazole-7-carboxamide]", "pIC50": 4.89}
{"molecule": "Cc1c(C(=O)NCCN2CCC2)oc2c1-c1nn(Cc3ccc(Cl)cc3)cc1CC2", "note": "[Example 26, N-[2-(azetidin-1-yl)ethyl]-2-[(4-chlorophenyl)methyl]-8-methyl-4,5-dihydro-2H-furo[2,3-g]indazole-7-carboxamide]", "pIC50": 5.79}
{"molecule": "Cc1c(C(=O)NCc2ccn(C)n2)oc2c1-c1nn(Cc3ccc(Cl)cc3)cc1CC2", "note": "[Example 37, 2-[(4-chlorophenyl)methyl]-8-methyl-N-[(1-methyl-1H-pyrazol-3-yl)methyl]-4,5-dihydro-2H-furo[2,3-g]indazole-7-carboxamide]", "pIC50": 6.74}
{"molecule": "Cc1c(C(=O)NCCN2CCOCC2)oc2c1-c1nn(Cc3ccc(Cl)cc3)cc1CC2", "note": "[Example 55, 2-[(4-chlorophenyl)methyl]-8-methyl-N-[2-(morpholin-4-yl)ethyl]-4,5-dihydro-2H-furo[2,3-g]indazole-7-carboxamide]", "pIC50": 5.38}
{"molecule": "Cc1ccccc1Cn1cc2c(n1)-c1c(oc(C(=O)NCC3CCCN3)c1C)CC2", "note": "(single isomer, unassigned) [Example 7-1]", "pIC50": 6.14}
{"molecule": "Cc1ccc(CNC(=O)c2oc3c(c2C)-c2nn(Cc4ccc(Cl)cc4)cc2CC3)cc1", "note": "[Example 22, 2-[(4-chlorophenyl)methyl]-8-methyl-N-[(4-methylphenyl)methyl]-4,5-dihydro-2H-furo[2,3-g]indazole-7-carboxamide]", "pIC50": 6.47}
{"molecule": "Cc1c(C(=O)NCCN2CCC2)oc2c1-c1nn(Cc3cccc(Cl)c3)cc1CC2", "note": "[Example 20, N-[2-(azetidin-1-yl)ethyl]-2-[(3-chlorophenyl)methyl]-8-methyl-4,5-dihydro-2H-furo[2,3-g]indazole-7-carboxamide]", "pIC50": 5.81}
{"molecule": "Cc1ccc(CNC(=O)c2oc3c(c2C)-c2nn(Cc4ccccc4Cl)cc2CC3)cc1", "note": "[Example 10, 2-[(2-chlorophenyl)methyl]-8-methyl-N-[(4-methylphenyl)methyl]-4,5-dihydro-2H-furo[2,3-g]indazole-7-carboxamide]", "pIC50": 7.38}
{"molecule": "Cc1c(C(=O)N2CCS(=O)(=O)CC2)oc2c1-c1nn(Cc3ccc(Cl)cc3)cc1CC2", "note": "[Example 90]", "pIC50": 4.72}
{"molecule": "Cc1c(C(=O)NCC2CCCO2)oc2c1-c1nn(Cc3ccccc3Cl)cc1CC2", "note": "(racemic) [Example 9, 2-[(2-chlorophenyl)methyl]-8-methyl-N-[(2RS)-tetrahydrofuran-2-ylmethyl]-4,5-dihydro-2H-furo[2,3-g]indazole-7-carboxamide]", "pIC50": 7.34}
{"molecule": "Cc1ccc(Cn2cc3c(n2)-c2c(oc(C(=O)NC[C@@H]4COCCO4)c2C)CC3)cc1", "note": "[Example 2, N-{[(2R)-1,4-dioxan-2-yl]methyl}-8-methyl-2-[(4-methylphenyl)methyl]-4,5-dihydro-2H-furo[2,3-g]indazole-7-carboxamide]", "pIC50": 8.15}
{"molecule": "Cc1c(C(=O)NCC[S+](C)[O-])oc2c1-c1nn(Cc3ccc(Cl)cc3)cc1CC2", "note": "(centres unmarked) [Example 63, 2-[(4-chlorophenyl)methyl]-NV-[2-(methanesulfinyl)ethyl]-8-methyl-4,5-dihydro-2H-furo[2,3-g]indazole-7-carboxamide]", "pIC50": 5.21}
{"molecule": "Cc1c(C(=O)N2CC(Cc3ccccc3)C2)oc2c1-c1nn(Cc3ccc(Cl)cc3)cc1CC2", "note": "[Example 49, (3-benzylazetidin-1-yl){2-[(4-chlorophenyl)methyl]-8-methyl-4,5-dihydro-2H-furo[2,3-g]indazol-7-yl}methanone]", "pIC50": 5.59}
{"molecule": "Cc1c(C(=O)NCc2cccn2C)oc2c1-c1nn(Cc3ccc(Cl)cc3)cc1CC2", "note": "[Example 44, 2-[(4-chlorophenyl)methyl]-8-methyl-N-[(1-methyl-1H-pyrrol-2-yl)methyl]-4,5-dihydro-2H-furo[2,3-g]indazole-7-carboxamide]", "pIC50": 6.05}
